Read-outs that look alike come from different tables or passages of the source.
Experiments:
S. aureus JAR060131 = type: cell-based, Staphylococcus aureus; conditions: for IC99.9: approx. 1 × 10^6 CFU/ml S. aureus JAR, within 2 hrs (Table 2)
Experimental: Polypeptides of the invention preferably have an in vitro IC99.9 of at most 150 μM after 2 hours at 37° C. against at least one microbial species in the presence of 50% plasma. Said IC99.9 is preferably determined in accordance with a method for determining the antimicrobial activity as described herein in the Examples. Said method described in the Examples for determining antimicrobial activity of microbes not associated with biofilm involves the mixing of 50 microL of a solution of a polypeptide in PBS with addition of human plasma at a final concentration of 50% and 20 microL of bacterial suspension with 5×10^6 CFU per mL of PBS in a well. After incubation of this mixture for 2 hours at 37° C. under shaking conditions, a sample is used for assessment of the bacterial counts. The lowest peptide concentration at which there is 99.9% of bacteria killed, is called the inhibitory concentration (IC) 99.9. Bacterial counts can be determined by manual CFU counting. For determining antibacterial activity for instance 1×10^6 CFU/ml bacteria are used, for determining antifungal activity for instance 1×10^5 cells/ml are used.
(§1) Peptides were incubated with 1×10^6 CFU/ml of a mid-logarithmic culture of S. aureus JAR060131, methicillin resistant S. aureus (MRSA) LUH14616, Staphylococcus epidermidis RP62a, and Pseudomonas aeruginosa PAO1 in PBS without or with addition of pooled human plasma (Sanquin, Amsterdam, the Netherlands) at a final concentration of 50%. Antimicrobial activity is expressed as the 99.9% lethal concentration (LC99.9), i.e., the lowest peptide concentration which killed ≥99.9% of bacteria after 2 hours of incubation at 37° C. under shaking conditions.

[1] = tested on: Pseudomonas aeruginosa PAO1; type: cell-based
Experimental: as §1

[2] = tested on: Staphylococcus epidermidis RP62a; type: cell-based
Experimental: as §1

[3] = tested on: stationary phase S. aureus JAR060131; type: cell-based, Staphylococcus aureus
Experimental: Bacteria were stored at −80° C. until use. Inoculi of mid log phase bacteria were prepared by incubating isolated bacterial colonies from blood agar plates in Tryptic Soy Broth (TSB) medium (Becton Dickinson, Le Pont de Clax, France) for 2.5 hours and then diluted to the concentration needed. Stationary phase S. aureus JAR060131 was obtained from 18-20 hour cultures.
To assess the antimicrobial activity of the peptides towards stationary phase bacteria, peptides were incubated under the conditions described above with 1×10^6 CFU/ml of stationary phase S. aureus JAR060131, obtained from 18-20 hour cultures.

Candida albicans Y-O1 = type: cell-based
Experimental: Peptides were incubated with 1×10^5 cells/ml of a mid-logarithmic culture of Candida albicans Y-O1, without or with addition of pooled human plasma at a final concentration of 50%. Antimicrobial activity is expressed as the 99% lethal concentration (LC99), i.e., the lowest peptide concentration at which ≥99% of cells were killed after 2 hours of incubation at 37° C. under shaking conditions.

A. niger PagsA-lux = assay: Effect on fungal growth; type: cell-based, Aspergillus niger
Experimental: The effect of the peptides on fungal growth was assessed using Aspergillus niger. Peptides were incubated with 7.5×10^4 spores/ml of A. niger PagsA-lux in PBS without or with addition of pooled human plasma at a final concentration of 25%. As positive control, spores were treated with the antifungal caspofungin (Cancidas). Absorbance was measured over time and at 16 hours, fungal growth was visualized using light microscopy.

[4] = tested on: S. aureus JAR060131 biofilm formation; type: cell-based, Staphylococcus aureus
Experimental: After solubilization with ethanol, the optical density at 590 nm is determined as a measure of biofilm mass.
Peptides were incubated with 1×10^8 CFU/ml of S. aureus JAR060131 in biofilm-adjusted BM2 in 96-wells polypropylene plates as described in Antimicrob Agents Chemother 2012; 56: 2696-2704. After 24 hours incubation at 37° C., planktonic bacteria were removed by four washes with PBS and biofilms were stained with crystal violet. After solubilization with ethanol, the optical density at 590 nm was determined as a measure of biofilm mass.
To assess the antibiofilm activity of the peptides in the presence of plasma, 96-wells polypropylene plates were coated with plasma by overnight incubation with 20% plasma at 4° C. Wells were washed once with sterile water and inoculated with S. aureus and peptides as described above.

[5] = tested on: LPS (E. coli 054)-induced IL-12p40 production; assay: LPS neutralization in whole human blood; type: cell-based
Text: The term “anti-inflammatory activity” of a polypeptide as used herein refers to inhibiting, reducing or preventing an inflammatory response in a subject that has been infected by microbes, e.g. bacteria, viruses, fungi, and/or parasites. Anti-inflammatory activity of polypeptides of the invention is achieved by inhibiting, reducing or preventing the release of pro-inflammatory microbial compounds, such as lipoteichoic acid (LTA), peptidoglycan (PG) and/or lipopolysaccharides (LPS). Anti-inflammatory activity can be measured by methods known in the art. Examples of such method are a LPS neutralization assay and a LTA neutralization assay as described in the Examples of this application. In such method, a polypeptide of the invention is mixed with a fixed concentration of LPS or LTA, such as 500 ng/ml LPS or 2 mg/ml LTA, and incubated for 30 min. Thereafter, these mixtures were added to diluted fresh human whole blood and 20 hours thereafter the level of cytokines (e.g. 1L-8 for LTA and 1L-12p40 for LPS) in the blood sample are measured by ELISA.
(§2) Peptides were pre-incubated with 500 ng/ml LPS (E. coli 054) or 2 mg/ml LTA (S. aureus, endotoxin-free) or 1×10^9 CFU/ml of UV-killed S. aureus JAR060131 for 30 min at 37° C. Diluted whole human blood was stimulated with the peptide-LPS/LTA/S. aureus mixtures for 20 hours at 37° C. IL-12p40 and IL-8 levels in supernatants were determined using ELISA.

[6] = tested on: UV-killed S. aureus JAR060131-induced IL-8 production; assay: S. aureus neutralization in whole human blood; type: cell-based; conditions: UV-killed S. aureus JAR060131-induced IL-8; blood from one donor
Experimental: as §2

[7] = 50% plasma, mid-logarithmic culture, median (Table 3)

Work on “Ac-IGKEFKRIVERIKRFLRELVRPLR-NH2 [OP-145, JIGKEFKRIVERIKRFLRELVRPLRB, reference compound]” yielded an IC99.9 (S. aureus JAR060131; 50% plasma) of 204.8 µM, an LC99.9 (S. aureus JAR060131; 50% plasma, mid-logarithmic culture, median of at least two experiments (Table 3)) of 204.8 µM and an LC99.9 (S. aureus JAR060131; JAR060131, 2 h) of 1.6 µM. For the same substance, the IC99.9 (S. aureus JAR060131; PBS) was 1.6 µM, the LC99.9 [1, 7] was over 204.8 µM and the LC99.9 ([1]; PAO1) was 3.2 µM. For the same substance, the LC99.9 [2, 7] was 204.8 µM, the LC99.9 ([2]; RP62a) was 0.8 µM and the LC99.9 ([3]; 50% plasma, stationary suspension, mean of three experiments (Table 4)) was over 204.8 µM. For the same substance, the LC99.9 ([3]; stationary phase JAR060131) was 1.6 µM, the “antifungal activity against C. albicans Y-O1 (in words)” value (Candida albicans Y-O1; 50% plasma, at 204.8 μM) was “no antifungal activity was observed” and the LC99 (Candida albicans Y-O1; 50% plasma, mean of two experiments) was over 204.8 µM. The “antifungal activity against C. albicans Y-O1 (in words)” value (Candida albicans Y-O1; PBS, at 51.2 μM) was “no antifungal activity”, the LC99 (Candida albicans Y-O1; Y-O1, 2 h) was over 51.2 µM and the “concentration inhibiting A. niger growth” value (A. niger PagsA-lux; 25% plasma, light micrographs only, 16 hours (FIG. 2)) was 204.8 µM. For the same substance, the “concentration inhibiting A. niger growth (by >99.9%)” value (A. niger PagsA-lux; PBS, optical density (FIG. 1)) was 3.2 µM, the IC50 ([4]; JAR060131 biofilm formation, 24 h) was 3200 nM and the IC50 ([4]; plasma-coated wells (FIG. 3B), read-out: concentration inhibiting biofilm formation for 50%) was 3200 nM. It also gave an IC90 ([5]; LPS-induced IL-12p40, blood from two donors) of 1.25 nM, an IC50 ([5]; diluted whole human blood, 20 hours) of 0.15 nM and an IC50 [6] of 0.195 µM.

— patent US10130677B2, “Antimicrobial peptide and uses thereof” (priority 2013, dated 2018)
